Measurements from publication PMC7725692 (Frontiers in Molecular Neuroscience, 2020).

Experiments:
Ace-ACR-16 [1] = target: T1, Ace-ACR-16 (Ancylostoma ceylanicum, UniProt A0A7M1S071); test: cell-based; conditions: read-out: % inhibition at 500 μM
T1 sequence (A0A7M1S071 22-498): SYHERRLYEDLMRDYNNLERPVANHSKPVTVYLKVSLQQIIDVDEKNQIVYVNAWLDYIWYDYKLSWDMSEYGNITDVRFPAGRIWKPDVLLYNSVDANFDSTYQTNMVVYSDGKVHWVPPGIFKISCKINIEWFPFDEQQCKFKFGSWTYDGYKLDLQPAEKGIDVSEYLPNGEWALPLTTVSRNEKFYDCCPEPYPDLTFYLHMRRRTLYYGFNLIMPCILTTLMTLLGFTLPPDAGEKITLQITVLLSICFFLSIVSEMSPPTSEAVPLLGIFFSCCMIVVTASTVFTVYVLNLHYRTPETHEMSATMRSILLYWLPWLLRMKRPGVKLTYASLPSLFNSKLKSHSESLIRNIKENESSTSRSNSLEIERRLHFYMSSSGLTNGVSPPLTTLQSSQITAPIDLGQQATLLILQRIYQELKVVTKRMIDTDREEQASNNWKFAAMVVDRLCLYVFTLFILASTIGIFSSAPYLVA

Nam-ACR-16 [2] = target: T2, Nam-ACR-16 (Necator americanus, UniProt A0A7M1S0Z8); test: cell-based; conditions: read-out: % inhibition at 500 μM
T2 sequence (A0A7M1S0Z8 22-498): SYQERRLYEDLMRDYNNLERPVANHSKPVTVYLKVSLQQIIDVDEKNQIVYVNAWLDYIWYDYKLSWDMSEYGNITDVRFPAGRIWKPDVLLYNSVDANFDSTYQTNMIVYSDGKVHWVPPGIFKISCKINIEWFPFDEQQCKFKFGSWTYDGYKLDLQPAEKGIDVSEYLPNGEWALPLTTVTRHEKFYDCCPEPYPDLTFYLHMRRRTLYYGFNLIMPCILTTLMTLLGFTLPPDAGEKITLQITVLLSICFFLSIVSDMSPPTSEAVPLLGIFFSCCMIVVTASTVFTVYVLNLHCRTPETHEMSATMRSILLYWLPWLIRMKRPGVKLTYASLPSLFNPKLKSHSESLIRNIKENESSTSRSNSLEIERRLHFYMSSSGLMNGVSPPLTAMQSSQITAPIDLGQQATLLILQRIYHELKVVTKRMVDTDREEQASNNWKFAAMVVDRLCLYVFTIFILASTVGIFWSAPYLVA

Nam-ACR-16 [3] = target: T2, Nam-ACR-16; test: two-electrode voltage clamp in Xenopus oocytes, agonist concentration-response (weak partial agonist); format: cell-based; design: full-length homopentameric receptor, co-expressed with Hco-RIC-3 in Xenopus laevis oocytes
Ace-ACR-16 [4] = target: T1, Ace-ACR-16; test: two-electrode voltage clamp in Xenopus oocytes, agonist concentration-response (full agonist); format: cell-based; design: full-length homopentameric receptor, co-expressed with Hco-RIC-3 in Xenopus laevis oocytes
Ace-ACR-16 [5] = target: T1, Ace-ACR-16; test: cell-based; design: full-length homopentameric receptor, co-expressed with Hco-RIC-3 in Xenopus laevis oocytes; conditions: read-out: % maximal acetylcholine response
Nam-ACR-16 [6] = target: T2, Nam-ACR-16; test: two-electrode voltage clamp in Xenopus oocytes, agonist concentration-response; format: cell-based; design: full-length homopentameric receptor, co-expressed with Hco-RIC-3 in Xenopus laevis oocytes

`c1ccc([C@H]2CN3CCSC3=N2)cc1` [levamisole] was tested, and the inhibition at 500 µM (Ace-ACR-16 [1]) was 65.1 ± 14.3% and the inhibition at 500 µM (Nam-ACR-16 [2]) was 79.5 ± 7.7%.

`CN1CCC[C@H]1c1cccnc1` [nicotine] showed an EC50 (Nam-ACR-16 [3]) of 598 ± 59.1 µM and an EC50 (Ace-ACR-16 [4]) of 24.4 ± 2.89 µM.

In the case of `CN1CCCN=C1/C=C/c1cccs1` [pyrantel], the Emax (Ace-ACR-16 [5]) is reported as 12.5 ± 7.5%.

In the case of `CC(=O)OCC[N+](C)(C)C` [acetylcholine], the EC50 (Nam-ACR-16 [6]) is reported as 170 ± 19.2 µM.

`CN1CCCN=C1/C=C/c1cccc(O)c1` [oxantel] was tested, and the Emax (Ace-ACR-16 [5]) was 15.6 ± 9.6%.
